Source: patent US10681909B2, “Herbicidal triazoles” (FMC Corporation, priority 2014, dated 2020)

Assays:
ragweed [1] = experiment: Test A preemergence; type: in vivo, Ambrosia elatior; settings: 0 to 100 scale (0 no effect, 100 complete control)
Summary of the method: (§1)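 Ratings reflect visual injury after ~10 d in greenhouse, 0 = no effect, 100 = complete control. Postemergence treatment was applied to one- to two-leaf seedlings; preemergence treatment was a directed soil spray at planting.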

ryegrass, Italian = experiment: Test A preemergence; type: in vivo, Lolium multiflorum; settings: 0 to 100 scale (0 no effect, 100 complete control)
Summary of the method: as §1

ragweed [2] = experiment: Test A postemergence; type: in vivo, Ambrosia elatior; settings: 0 to 100 scale (0 no effect, 100 complete control), approx. 10 d
Summary of the method: as §1

bluegrass = experiment: Test D preemergence; type: in vivo, Poa annua; settings: for Plant response rating (0 to 100), Bluegrass: 16 g ai/ha, 0 is no effect, 100 is complete control; for Plant response rating: Bluegrass: scale 0 to 100
Excerpt: (§2) Seeds of plant species selected from bluegrass (annual bluegrass, Poa annua), blackgrass (Alopecurus myosuroides), canarygrass (Phalaris minor), chickweed (common chickweed, Stellaria media), galium (catchweed bedstraw, Galium aparine), bromegrass, down (downy bromegrass, Bromus tectorum), Russian thistle (Salsola kali), field poppy (Papaver rhoeas), field violet (Viola arvensis), foxtail, green (green foxtail, Setaria viridis), deadnettle (henbit deadnettle, Lamium amplexicaule), ryegrass, Ital. (Italian ryegrass, Lolium multiflorum), kochia (Kochia scoparia), lambsquarters (Chenopodium album), oilseed rape (Brassica napus), pigweed (Amaranthus retroflexus), chamomile (scentless chamomile, Matricaria inodora), speedwell (bird's-eye speedwell, Veronica persica), barley, spring (spring barley, Hordeum vulgare), wheat, spring (spring wheat, Triticum aestivum), buckwheat, wild (wild buckwheat, Polygonum convolvulus), wild mustard (Sinapis arvensis), oat, wild (wild oat, Avena fatua), radish, wild (wild radish, Raphanus raphanistrum), […]), barley, winter (winter barley, Hordeum vulgare), and wheat, winter (winter wheat, Triticum aestivum) were planted into a silt loam soil and treated preemergence with test chemicals formulated in a non-phytotoxic solvent mixture which included a surfactant. At the same time, these species were planted in pots containing Sunshine Redi-Earth® planting medium comprising spaghnum peat moss, vermiculite, starter nutrients and dolomitic limestone and treated with postemergence applications of the test chemicals formulated in the same manner. Plants ranged in height from 2 to 18 cm (1- to 4-leaf stage). Treated plants and controls were maintained in a controlled growth environment for 14 to 21 d after which time all species were compared to controls and visually evaluated. […] A dash (-) response means no test result.

blackgrass = experiment: Test D preemergence; type: in vivo, Alopecurus myosuroides; settings: for Plant response rating (0 to 100), Blackgrass: 16 g ai/ha, 0 is no effect, 100 is complete control; for Plant response rating: Blackgrass: scale 0 to 100
Excerpt: as §2

galium = experiment: Test D preemergence; type: in vivo, Galium aparine; settings: for Plant response rating (0 to 100), Galium: 16 g ai/ha, 0 is no effect, 100 is complete control; for Plant response rating: Galium: scale 0 to 100
Excerpt: as §2

bromegrass, down = experiment: Test D preemergence; type: in vivo, Bromus tectorum; settings: for Plant response rating (0 to 100), Bromegrass, Down: 16 g ai/ha, 0 is no effect, 100 is complete control; for Plant response rating: Bromegrass, Down: scale 0 to 100
Excerpt: as §2

foxtail, green [3] = experiment: Test D preemergence; type: in vivo, Setaria viridis; settings: for Plant response rating (0 to 100), Foxtail, Green: 16 g ai/ha, 0 is no effect, 100 is complete control; for Plant response rating: Foxtail, Green: scale 0 to 100
Excerpt: as §2

foxtail, green [4] = experiment: Test D postemergence; type: in vivo, Setaria viridis; settings: scale 0 to 100
Excerpt: as §2

kochia = experiment: Test D postemergence; type: in vivo, Kochia scoparia; settings: scale 0 to 100
Excerpt: as §2

oilseed rape = experiment: Test D postemergence; type: in vivo, Brassica napus; settings: scale 0 to 100
Excerpt: as §2

wild mustard = experiment: Test D postemergence; type: in vivo, Sinapis arvensis; settings: scale 0 to 100
Excerpt: as §2

morningglory = experiment: Test A preemergence; type: in vivo, Ipomoea spp.; settings: Ipomoea, pre-emergence, 240 h, 0 to 100 scale (0 no effect, 100 complete control), read-out: Plant response rating, Morningglory
Summary of the method: (§3)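 Pre- and postemergence spray tests in a loam soil–sand mixture: seeded soil received a directed spray, while established seedlings 2–10 cm high at the one- to two-leaf stage were treated over the top. Compounds were carried in non-phytotoxic solvent with surfactant.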

wheat = experiment: Test A preemergence; type: in vivo, Triticum aestivum; settings: Triticum aestivum, pre-emergence, 240 h, 0 to 100 scale (0 no effect, 100 complete control), read-out: Plant response rating, Wheat
Summary of the method: as §3

Structure (SMILES) | Plant response rating: Bluegrass (bluegrass; 31 g ai/ha) | Plant response rating: Bluegrass (bluegrass; 62 g ai/ha) | Plant response rating: Bluegrass (bluegrass; 125 g ai/ha) | Plant response rating: Blackgrass (blackgrass; 31 g ai/ha) | Plant response rating: Blackgrass (blackgrass; 62 g ai/ha) | Plant response rating: Blackgrass (blackgrass; 125 g ai/ha) | Plant response rating: Galium (galium; 62 g ai/ha) | Plant response rating: Galium (galium; 125 g ai/ha) | Plant response rating: Bromegrass, Down (bromegrass, down; 31 g ai/ha) | Plant response rating: Bromegrass, Down (bromegrass, down; 62 g ai/ha) | Plant response rating: Bromegrass, Down (bromegrass, down; 125 g ai/ha) | Plant response rating: Foxtail, Green (foxtail, green [3]; 62 g ai/ha) | Plant response rating: Foxtail, Green (foxtail, green [3]; 125 g ai/ha) | Plant response rating: Foxtail, Green (foxtail, green [4]; 31 g ai/ha) | Plant response rating: Foxtail, Green (foxtail, green [4]; 62 g ai/ha) | Plant response rating: Foxtail, Green (foxtail, green [4]; 125 g ai/ha) | Plant response rating: Kochia (kochia; 31 g ai/ha) | Plant response rating: Kochia (kochia; 62 g ai/ha) | Plant response rating: Kochia (kochia; 125 g ai/ha) | Plant response rating: Oilseed Rape (oilseed rape; 31 g ai/ha) | further results
CCOc1nc(-c2ccccc2)nn1Cc1ccnc(C(F)(F)F)c1 [Compound 27] | 55 | 85 | 100 | 30 | 45 | 70 | 100 | 100 | 20 | 65 | 70 | 100 | 100 | 65 | 80 | 95 | 95 | 95 | 100 | 85 | Plant response rating, Ragweed (ragweed [1]; 125 g ai/ha): 90; Plant response rating, Ragweed (ragweed [1]; 500 g ai/ha, approx. 10 d): 100; Plant response rating, Ryegrass, Italian (ryegrass, Italian; 125 g ai/ha): 90; Plant response rating, Ryegrass, Italian (ryegrass, Italian; 500 g ai/ha, approx. 10 d): 100; Plant response rating, Ragweed (ragweed [2]; 125 g ai/ha): 50; Plant response rating, Ragweed (ragweed [2]; 500 g ai/ha): 70; Plant response rating (0 to 100), Bluegrass (bluegrass): 20; Plant response rating (0 to 100), Blackgrass (blackgrass): 25; Plant response rating (0 to 100), Galium (galium): 70; Plant response rating (0 to 100), Bromegrass, Down (bromegrass, down): 0; Plant response rating (0 to 100), Foxtail, Green (foxtail, green [3]): 95; Plant response rating: Foxtail, Green (foxtail, green [4]; 16 g ai/ha): 35; Plant response rating: Kochia (kochia; 16 g ai/ha): 85; Plant response rating: Oilseed Rape (oilseed rape; 16 g ai/ha): 80; Plant response rating: Oilseed Rape (oilseed rape; 62 g ai/ha): 90; Plant response rating: Oilseed Rape (oilseed rape; 125 g ai/ha): 100; Plant response rating: Mustard, Wild (wild mustard; 16 g ai/ha): 80; Plant response rating: Mustard, Wild (wild mustard; 31 g ai/ha): 100; Plant response rating: Mustard, Wild (wild mustard; 62 g ai/ha): 100; Plant response rating: Mustard, Wild (wild mustard; 125 g ai/ha): 100
FC(F)(F)COc1nc(-c2ccccc2)nn1Cc1ccnc(C(F)(F)F)c1 [Compound 24] | 75 | 80 | 98 | 45 | 50 | 65 | 65 | 75 | 40 | 35 | 40 | 98 | 100 | 25 | 65 | 65 | 90 | 90 | 90 | 75 | Plant response rating, Ragweed (ragweed [1]; 500 g ai/ha, approx. 10 d): 40; Plant response rating, Ryegrass, Italian (ryegrass, Italian; 125 g ai/ha): 70; Plant response rating, Ryegrass, Italian (ryegrass, Italian; 500 g ai/ha, approx. 10 d): 80; Plant response rating, Ragweed (ragweed [2]; 125 g ai/ha): 50; Plant response rating, Ragweed (ragweed [2]; 500 g ai/ha): 70; Plant response rating (0 to 100), Bluegrass (bluegrass): 20; Plant response rating (0 to 100), Blackgrass (blackgrass): 20; Plant response rating (0 to 100), Galium (galium): 55; Plant response rating (0 to 100), Bromegrass, Down (bromegrass, down): 25; Plant response rating (0 to 100), Foxtail, Green (foxtail, green [3]): 75; Plant response rating: Foxtail, Green (foxtail, green [4]; 16 g ai/ha): 15; Plant response rating: Kochia (kochia; 16 g ai/ha): 85; Plant response rating: Oilseed Rape (oilseed rape; 16 g ai/ha): 65; Plant response rating: Oilseed Rape (oilseed rape; 62 g ai/ha): 80; Plant response rating: Oilseed Rape (oilseed rape; 125 g ai/ha): 85; Plant response rating: Mustard, Wild (wild mustard; 16 g ai/ha): 65; Plant response rating: Mustard, Wild (wild mustard; 31 g ai/ha): 70; Plant response rating: Mustard, Wild (wild mustard; 62 g ai/ha): 100; Plant response rating: Mustard, Wild (wild mustard; 125 g ai/ha): 100
FC(F)(F)COc1nc(-c2ccc(Cl)cc2)nn1Cc1ccnc(C(F)(F)F)c1 [Compound 31] | 65 | 95 | 100 | 40 | 60 | 75 | 80 | 90 | 25 | 50 | 55 | 100 | 100 | 80 | 80 | 85 | 85 | 90 | 95 | 85 | Plant response rating, Ragweed (ragweed [1]; 125 g ai/ha): 50; Plant response rating, Ragweed (ragweed [1]; 500 g ai/ha): 70; Plant response rating, Ryegrass, Italian (ryegrass, Italian; 125 g ai/ha): 90; Plant response rating, Ryegrass, Italian (ryegrass, Italian; 500 g ai/ha): 100; Plant response rating, Ragweed (ragweed [2]; 125 g ai/ha): 70; Plant response rating, Ragweed (ragweed [2]; 500 g ai/ha): 80; Plant response rating (0 to 100), Bluegrass (bluegrass): 55; Plant response rating (0 to 100), Blackgrass (blackgrass): 35; Plant response rating (0 to 100), Galium (galium): 70; Plant response rating (0 to 100), Bromegrass, Down (bromegrass, down): 25; Plant response rating (0 to 100), Foxtail, Green (foxtail, green [3]): 95; Plant response rating: Foxtail, Green (foxtail, green [4]; 16 g ai/ha): 70; Plant response rating: Kochia (kochia; 16 g ai/ha): 80; Plant response rating: Oilseed Rape (oilseed rape; 16 g ai/ha): 80; Plant response rating: Oilseed Rape (oilseed rape; 62 g ai/ha): 90; Plant response rating: Oilseed Rape (oilseed rape; 125 g ai/ha): 100; Plant response rating: Mustard, Wild (wild mustard; 16 g ai/ha): 100; Plant response rating: Mustard, Wild (wild mustard; 31 g ai/ha): 100; Plant response rating: Mustard, Wild (wild mustard; 62 g ai/ha): 100; Plant response rating: Mustard, Wild (wild mustard; 125 g ai/ha): 100
CCOc1nc(-c2ccc(F)cc2)nn1Cc1ccnc(C(F)(F)F)c1 [Compound 8, 4-[[5-ethoxy-3-(4-fluorophenyl)-1H-1,2,4-triazol-1-yl]methyl]-2-(trifluoromethyl)pyridine] | 70 | 70 | 100 | 65 | 70 | 100 | 35 | 50 | 10 | 35 | 100 | 100 | 100 | 40 | 75 | 75 | 75 | 80 | 85 | 70 | pest or weed control at 125 g/ha (morningglory; 125 g ai/ha): 100%; pest or weed control at 500 g/ha (morningglory; 500 g ai/ha, approx. 10 d): 100%; plant injury at 125 g/ha (wheat; 125 g ai/ha): 80%; plant injury at 500 g/ha (wheat; 500 g ai/ha, approx. 10 d): 100%; Plant response rating: Bluegrass (bluegrass; 250 g ai/ha): 100; Plant response rating: Blackgrass (blackgrass; 250 g ai/ha): 100; Plant response rating: Galium (galium; 250 g ai/ha): 70; Plant response rating: Bromegrass, Down (bromegrass, down; 250 g ai/ha): 100; Plant response rating: Foxtail, Green (foxtail, green [3]; 250 g ai/ha): 100; Plant response rating: Foxtail, Green (foxtail, green [4]; 250 g ai/ha): 85; Plant response rating: Kochia (kochia; 250 g ai/ha): 80; Plant response rating: Oilseed Rape (oilseed rape; 62 g ai/ha): 75; Plant response rating: Oilseed Rape (oilseed rape; 125 g ai/ha): 100; Plant response rating: Oilseed Rape (oilseed rape; 250 g ai/ha): 100; Plant response rating: Mustard, Wild (wild mustard; 31 g ai/ha): 100; Plant response rating: Mustard, Wild (wild mustard; 62 g ai/ha): 100; Plant response rating: Mustard, Wild (wild mustard; 125 g ai/ha): 100; Plant response rating: Mustard, Wild (wild mustard; 250 g ai/ha): 100
